One series relates to HaCaT cells. The series can be described thus: MTT cytotoxicity assay on HaCaT keratinocytes. The note with it: for IC50: Homo sapiens. The format is cell-based, human. Here is the method:
HaCaT keratinocyte cells were exposed to chemical compounds at nine different concentrations (from 3.9 to 995.6 µg/mL) in four replicates of each concentration for 24 and 48 h.
All compounds were dissolved in sterile DMSO (Merck Life Science, Warsaw, Poland) and were sterile-filtered with 0.22 µm pore size sterile disposable syringe filters.
HaCaT cell line (the normal immortalised human keratinocytes) used in the study derived from the 35th passage (the original material created by Prof. Dr. Petra Boukamp and Dr. Norbert Fusenig) was purchased from Cell Line Service GmbH (Eppelheim, Germany). The cells were cultured and propagated as described previously.
The cytotoxicity was assessed with MTT assay according to methodology applied previously.
The following final concentrations (in four replicates per experiment) of the test compounds were tested (µg/mL): 3.9; 7.8; 15.6; 31.1; 62.2; 124.5; 248.9; 497.8, and 995.6. […] Three independent experiments were conducted. The vehicle was cells in the culture medium. The assay was conducted for 24 h and 48 h.

Series [1] concerns Escherichia coli ATCC 11303. The series can be described thus: Minimal inhibition concentration (dilution + diffusion-well). The format is cell-based. The note with it: ATCC11303, 37 °C, 18 h. The essentials: (§1)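 Agar diffusion-well format on Mueller–Hinton agar, 8 mm wells loaded with two-fold compound dilutions prepared from 500 to 62.5 µM in 5% DMSO. Plates incubated 18 h at 37 °C; MIC taken as first concentration showing growth inhibition.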

In another series the test system is Staphylococcus aureus. Details: method as in PMID 36009336. As to conditions: cited from earlier work.
For series [2] the following is noted: pH 6.5; cited from earlier work.
Another series deals with Pseudomonas aeruginosa. Details: method as in PMID 36009336. The note with it: cited from earlier work.
A further series relates to prostate cancer cells. As to conditions: cited from earlier work.
Another series deals with Bacillus cereus. Details: method as in PMID 36009336. The note with it: cited from earlier work.
A further series concerns Escherichia coli. Details: method as in PMID 36009336. As to conditions: cited from earlier work.
Series [3] is described as follows: FRAP assay (ferric-ion reducing antioxidant power). The note with it: mean ± SD. Here is the method: To evaluate the antioxidant ability of the tested systems, antioxidant analysis was performed. Antioxidants can scavenge hydroxyl radicals in two ways: by reacting directly with hydroxyl radicals (DPPH^•, ABTS^•+) or indirectly inhibiting the formation of hydroxyl radicals by chelating metal ions involved in the production of hydroxyl radicals. The antioxidant activity of the systems studied was investigated by using DPPH^• scavenging, ABTS^•+ scavenging ability, and Fe^2+-chelating ability. In this study, the antioxidant activity of pure hesperetin and its Schiff bases (HHSB, HIN, and HTSC) and HP-β-CD complexes were compared, and the positive control was Trolox.
The antioxidant capacity determined by the FRAP assay (the ability of plasma to reduce iron) was carried out using a modification of the FRAP assay. The FRAP reagent consisted of the following solutions: 300 mM acetate, pH 3.6 glacial acetic acid buffer, 20 mM ferric chloride (FeCl3×6H2O), and 10 mM 2,4,6-tripyridyl-S-triazine (TPTZ) prepared in 40 mM HCl. The aforementioned solutions were mixed together in a ratio of 10:1:1 (v/v/v). The FRAP assay consisted of adding 15 µL of sample to 1.98 mL of reagent and incubating the mixture at 37 °C for 4 min. Absorbance measurement was recorded at 593 nm against a blank. Total antioxidant capacity was estimated relative to a standard of known FRAP concentration, ferrous sulfate.

Series [4] relates to Staphylococcus aureus ATCC 29737. Nature of the series: Minimal inhibition concentration (dilution + diffusion-well). The format is cell-based. As to conditions: ATCC29737, 37 °C, 18 h. The essentials:
as §1

Series [5] relates to Escherichia coli ATCC 35218. Described as above. The format is cell-based. The note with it: ATCC35218, 37 °C, 18 h. The procedure, abridged:
as §1

The mark [6] stands for this setting: MTT, 24 h exposure, read-out: IC50 After 24 h.
[7] abbreviates: MTT, 48 h exposure, read-out: IC50 After 48 h.

Values after ≈ are worked out from the molar mass of the structure shown. Values joined by “and” are separate entries in the source; they are usually repeats but may differ in a detail not shown here. Equal entries are not always repeated. Where two headings read alike, the source gives them in different places.

A word on the IC50: it is the concentration needed to halve the response being measured. Usually MIC stands for the lowest concentration that inhibits growth of the organism. `COc1ccc(C2C/C(=N\NC(=O)c3ccncc3)c3c(O)cc(O)cc3O2)cc1O` (racemic) [HIN]: the “Non-cytotoxic concentration (IC0)” value is reported as not above 7.8 µg/mL in the series on HaCaT cells (24 h exposure) and not above 15.6 µg/mL in the series with HaCaT cells (48 h exposure). Also, the figures for the IC50 in the series with HaCaT cells (setting [6]) and with HaCaT cells (setting [7]) were 350 µg/mL (≈ 831 µM) and 59.7 µg/mL (≈ 142 µM), respectively. Moreover, the MIC in series [1] is 2.5 µM.

For the compound `COc1ccc(C2CC(=O)c3c(O)cc(O)cc3O2)cc1O` (stereo not drawn) [Hesperetin, 3′,5,7-Trihydroxy-4′-methoxyflavanone], the MIC was 125 µg/mL (≈ 414 µM) in the series on Staphylococcus aureus; 500 µg/mL (≈ 1650 µM) in the series on Pseudomonas aeruginosa; 250 µg/mL (≈ 827 µM) in the series on Bacillus cereus; 500 µg/mL (≈ 1650 µM) with Escherichia coli; 2.5 µM in [1]. In series [2], the “increase of hesperetin solubility with HP-β-CD” value is recorded as 164 times. For the same compound, the “Non-cytotoxic concentration (IC0)” value in the series with HaCaT cells (48 h exposure) is listed as not above 3.9 µg/mL. The IC50 in the series with HaCaT cells (setting [6]) was determined as 221 µg/mL (≈ 731 µM); in the series with HaCaT cells (setting [7]) it was 150 µg/mL (≈ 496 µM). In addition, in the series on prostate cancer cells, the “decrease in the cytotoxicity of cabazitaxel” value is given as 13.1 fold. Moreover, the “decrease in the cytotoxicity of docetaxel” value in the series on prostate cancer cells is recorded as 9.8 fold. Moreover, the FRAP antioxidant activity in [3] is on record as 0.0005 ± 0.0005 mmolFe(II)/L.

Take `COc1ccc(C2CC(=NNC(N)=S)c3c(O)cc(O)cc3O2)cc1O` (stereo not drawn) [HTSC, N-[2,3-dihydro-5,7-dihydroxy-2-(3-hydroxy-4-methoxyphenyl)chromen-4-ylidene]thiosemicarbazide]: the “Non-cytotoxic concentration (IC0)” value in the series on HaCaT cells (48 h exposure) is given as not above 3.9 µg/mL. Further, the IC50 with HaCaT cells (setting [7]) amounted to 11.9 µg/mL (≈ 31.7 µM). Further, the FRAP antioxidant activity in series [3] was 0.000005 ± 0.00005 mmolFe(II)/L. Further, the MIC in [4] amounted to 2.5 µM.

For the compound `COc1ccc(C2C/C(=N\NC(=O)c3ccccc3)c3c(O)cc(O)cc3O2)cc1O` (racemic) [HHSB], the “cytotoxicity at the lowest concentration tested” value in the series on HaCaT cells (48 h, 3.9 µg/mL) is listed as 54.8% ± 5.4. Moreover, in the series on HaCaT cells (48 h, 995.6 µg/mL), the “cytotoxicity at the highest concentration tested” value is given as 79.1% ± 6.6. Moreover, the IC50 in the series with HaCaT cells (setting [6]) stood at 418 µg/mL (≈ 993 µM). Also, in the series with HaCaT cells (MTT, 48 h exposure, IC50 impossible to count), the “IC70 after 48 h” value was 163.5 µg/mL and 163.5 ^b µg/mL. In addition, the FRAP antioxidant activity in series [3] was 0.000005 ± 0.00005 mmolFe(II)/L. Also, the MIC in series [5] is 2.5 µM.
